# From patent US8623877B2, “Substituted N-heteroaryl tetrahydro-isoquinoline derivatives, preparation and therapeutic use thereof” (Sanofi, priority 2010, dated 2014)
# Like-named read-outs stand apart in the source and are kept apart here.
# Legend:
# [1] = target: Rat H3 (Rattus norvegicus, UniProt Q9QYN8); assay: Rat H3 radioligand binding assay (similar procedure)
# Experimental: (§1) Rhesus H3 radioligand binding assay was performed using rhesus H3 receptor membranes (prepared as described above), [3H]-Methylhistamine (Perkin Elmer) and WGA SPA beads (wheat germ agglutinin scintillation proximity assay) beads (Amersham). The assay was performed in 96-well Opti-Plates (Packard). Each reaction contained 50 μl rhesus H3 membranes (20-30 μg total protein), 50 μl WGA SPA beads (0.1 μg) and 50 μl of 83 Ci/mmol [^3H]-Methylhistamine (final concentration 2 nM) and 50 μl of tested compound. The compounds of this invention and/or vehicle were diluted with binding buffer from 10 mM DMSO stocks. Assay plates were sealed with TopSeal (Perkin Elmer) and mixed on shaker (25° C., 1 hour). Assay plates were read on TopCount scintillation counter (Packard). Results were analyzed by Hill transformation and Ki values were determined by Cheng-Prusoff equation. Similar procedure was employed to determine the binding data for rat.
# [2] = target: T1, rhesus H3 (Macaca mulatta, UniProt Q865E1); assay: Rhesus H3 [3H]-Methylhistamine radioligand binding assay (SPA, cell membranes); design: species or system rhesus monkey (Macacca Mulatta); conditions: [3H]-Methylhistamine 2 nM, Cheng-Prusoff
# T1 construct: 445 amino acid H3 receptor; expressed in transfected cells; host or cells: Flp-In T-REx 293 Cell Line (Invitrogen), pcDNA5/FRT/TO, induced with tetracycline
# Experimental: (§2) Rhesus H3 membranes were prepared from the Flp-In T-REx 293 Cell Line (Invitrogen) stably transfected with pcDNA5/FRT/TO (Invitrogen) containing the rhesus monkey (Macacca Mulatta) 445 amino acid H3 receptor. (Genbank #AY231164). Stably transfected cultures were amplified in tissue culture flasks by standard tissue culture methods and induced to express rhesus H3 by exposure to 500 ng/ml tetracycline (Cellgro) for 24 hours. After induction, cells were dissociated from flasks utilizing Cell Stripper (Cellgro). Cells were centrifuged (1 K×g, 5 min) and pellet frozen in an ethanol-dry ice bath to disrupt cell membranes. Frozen cell pellet was re-suspended in 5 mM HEPES (pH 7.4, Invitrogen) at 10 ml/1000 cm2 of harvested cells. The cell suspension was drawn through an 18 gauge needle (2-3×) followed by a 23 gauge needle (2-3×) to further disrupt cell membranes. The cell suspension was centrifuged (40K×g, 30 min). Cell membrane pellet was re-suspended in 5 mM HEPES (pH 7.4, Invitrogen) at a final protein concentration of 10 mg/ml. Rhesus H3 membranes were stored under liquid nitrogen prior to use in [3H]-Methylhistamine and GTPγS radioligand binding assays.
# as §1
# [3] = target: T1, rhesus H3; assay: GTPγS radioligand binding assay, inhibition of rhesus H3 constitutive functional activity in cell membranes; format: biochemical, rhesus monkey (Macacca Mulatta); conditions: basal rhesus H3-mediated GTPγS binding
# Experimental: as §2
# [4] = rat H3, similar procedure to the rhesus binding assay, read-out: Rat H3 Binding ki
# T1 sequence (Q865E1 1-445): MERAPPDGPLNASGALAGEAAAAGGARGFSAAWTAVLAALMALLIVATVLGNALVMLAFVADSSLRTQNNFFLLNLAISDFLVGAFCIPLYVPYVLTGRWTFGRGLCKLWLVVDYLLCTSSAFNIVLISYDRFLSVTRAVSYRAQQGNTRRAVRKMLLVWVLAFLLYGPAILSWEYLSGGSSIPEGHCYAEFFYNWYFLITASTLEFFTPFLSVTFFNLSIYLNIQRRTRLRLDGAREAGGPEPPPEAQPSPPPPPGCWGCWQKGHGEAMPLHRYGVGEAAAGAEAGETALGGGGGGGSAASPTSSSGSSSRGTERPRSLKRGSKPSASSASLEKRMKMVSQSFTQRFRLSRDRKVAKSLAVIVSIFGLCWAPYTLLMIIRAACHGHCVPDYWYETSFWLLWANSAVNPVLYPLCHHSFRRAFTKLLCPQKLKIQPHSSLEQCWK
# Rat H3, sequence (Q9QYN8 whole entry): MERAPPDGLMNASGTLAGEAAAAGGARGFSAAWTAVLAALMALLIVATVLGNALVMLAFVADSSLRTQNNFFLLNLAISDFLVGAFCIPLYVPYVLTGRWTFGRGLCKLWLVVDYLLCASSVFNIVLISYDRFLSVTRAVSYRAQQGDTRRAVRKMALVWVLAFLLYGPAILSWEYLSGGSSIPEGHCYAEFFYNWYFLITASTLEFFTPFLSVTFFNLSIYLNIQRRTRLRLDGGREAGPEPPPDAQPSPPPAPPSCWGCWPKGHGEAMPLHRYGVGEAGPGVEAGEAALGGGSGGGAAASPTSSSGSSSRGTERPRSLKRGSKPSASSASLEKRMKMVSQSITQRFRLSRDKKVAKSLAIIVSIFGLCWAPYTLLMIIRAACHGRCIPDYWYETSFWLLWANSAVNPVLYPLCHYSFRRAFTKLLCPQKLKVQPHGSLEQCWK
Compound,"Ki [1, 4]",Ki [2],GTPγS-35 ASSAY % Inverse Agonism [3],Ki [1]
"C[C@H]1CCCN1[C@H]1CCN(c2ccc3c(c2)CCN(c2cccnc2Cl)C3)C1 [Example 3, 2-(2-Chloro-pyridin-3-yl)-6-((2S,3′S)-2-methyl-[1,3′]bipyrrolidinyl-1′-yl)-1,2,3,4-tetrahydro-isoquinoline]",6.1 nM,2.2 nM,−14.7%,–
"Cc1cccc(N2CCc3cc(N4CC[C@H](N5CCC[C@@H]5C)C4)ccc3C2)n1 [Example 4, 6-((2S,3′S)-2-Methyl-[1,3′]bipyrrolidinyl-1′-yl)-2-(6-methyl-pyridin-2-yl)-1,2,3,4-tetrahydro-isoquinoline]",0.4 nM,0.48 nM,−46.7%,–
"C[C@H]1CCCN1[C@H]1CCN(c2ccc3c(c2)CCN(c2cnc(Br)nc2)C3)C1 [Example 5, 2-(2-Bromo-pyrimidin-5-yl)-6-((2S,3′S)-2-methyl-[1,3′]bipyrrolidinyl-1′-yl)-1,2,3,4-tetrahydro-isoquinoline]",92 nM,24 nM,−36.4%,–
"C[C@H]1CCCN1[C@H]1CCN(c2ccc3c(c2)CCN(c2cncnc2)C3)C1 [Example 6, 6-((2S,3′S)-2-Methyl-[1,3′]bipyrrolidinyl-1′-yl)-2-pyrimidin-5-yl-1,2,3,4-tetrahydro-isoquinoline]",1.5 nM,0.98 nM,−48.7%,–
"C[C@H]1CCCN1[C@H]1CCN(c2ccc3c(c2)CCN(c2cnc4ccccc4c2)C3)C1 [Example 7, 3-[6-((2S,3′S)-2-Methyl-[1,3′]bipyrrolidinyl-1′-yl)-3,4-dihydro-1H-isoquinolin-2-yl]-quinoline]",26 nM,0.28 nM,−32.5%,–
"C[C@H]1CCCN1[C@H]1CCN(c2ccc3c(c2)CCN(c2nc4ccccc4o2)C3)C1 [Example 8, 2-Benzooxazol-2-yl-6-((2S,3′S)-2-methyl-[1,3′]bipyrrolidinyl-1′-yl)-1,2,3,4-tetrahydro-isoquinoline]",1200 nM,680 nM,−29.4%,–
"Cc1ccc(S(=O)(=O)N2CCc3cc(N4CCc5cc(N6CC[C@H](N7CCC[C@@H]7C)C6)ccc5C4)ccc3C2)cc1 [Example 9, 6-((2S,3′S)-2-Methyl-[1,3′]bipyrrolidinyl-1′-yl)-2′-(toluene-4-sulfonyl)-3,4,1′,2′,3′,4′-hexahydro-1H-[2,6′]biisoquinolinyl]",380 nM,180 nM,−13.0%,–
"COc1cncc(N2CCc3cc(N4CC[C@H](N5CCC[C@@H]5C)C4)ccc3C2)c1 [Example 10, 2-(5-Methoxy-pyridin-3-yl)-6-((2S,3′S)-2-methyl-[1,3′]bipyrrolidinyl-1′-yl)-1,2,3,4-tetrahydro-isoquinoline]",0.5 nM,0.24 nM,−16.7%,–
"Cc1ccnc(N2CCc3cc(N4CC[C@H](N5CCC[C@@H]5C)C4)ccc3C2)c1 [Example 13, 6-((2S,3′S)-2-Methyl-[1,3′]bipyrrolidinyl-1′-yl)-2-(4-methyl-pyridin-2-yl)-1,2,3,4-tetrahydro-isoquinoline]",1.7 nM,0.58 nM,−27.3%,–
"C[C@H]1CCCN1[C@H]1CCN(c2ccc3c(c2)CCN(c2cccc(N4CCCC4)n2)C3)C1 [Example 15, 6-((2S,3′S)-2-Methyl-[1,3′]bipyrrolidinyl-1′-yl)-2-(6-pyrrolidin-1-yl-pyridin-2-yl)-1,2,3,4-tetrahydro-isoquinoline]",22 nM,4.8 nM,−13.8%,–
"C[C@H]1CCCN1[C@H]1CCN(c2ccc3c(c2)CCNCC3)C1 [Example 17, 7-((2S,3′S)-2-Methyl-1,3′-bipyrrolidinyl-1′-yl)-2,3,4,5-tetrahydro-1H-3-benzazepine]",–,1.2 nM,−14.7%,5.9 nM
"C[C@H]1CCCN1[C@H]1CCN(c2ccc3c(c2)CCN(c2cnc4ccccc4c2)CC3)C1 [Example 18, 7-((2S,3′S)-2-Methyl-[1,3′]bipyrrolidinyl-1′-yl)-3-quinolin-3-yl-2,3,4,5-tetrahydro-1H-benzo[d]azepine]",1.2 nM,26 nM,−8.2%,–
"CNC(=O)c1ccc(N2CCc3ccc(N4CC[C@H](N5CCC[C@@H]5C)C4)cc3CC2)nc1 [Example 20, N-Methyl-6-[7-((2S,3′S)-2-methyl-[1,3′]bipyrrolidinyl-1′-yl)-1,2,4,5-tetrahydro-benzo[d]azepin-3-yl]-nicotinamide]",0.27 nM,10 nM,−8.4%,–

# The next lines start with results.
"Ki [1, 4]",Ki [2],GTPγS-35 ASSAY % Inverse Agonism [3],Compound,Ki [1]
0.95 nM,0.39 nM,–,"CNC(=O)c1ccc(N2CCc3cc(N4CC[C@H](N5CCC[C@@H]5C)C4)ccc3C2)nc1 [Example 1, N-Methyl-6-[6-((2S,3′S)-2-methyl-[1,3′]bipyrrolidinyl-1′-yl)-3,4-dihydro-1H-isoquinolin-2-yl]-nicotinamide]",–
56 nM,29 nM,−37.4%,"C[C@H]1CCCN1[C@H]1CCN(c2ccc3c(c2)CCN(c2ccc(C(F)(F)F)cn2)C3)C1 [Example 2, 6-((2S,3′S)-2-Methyl-[1,3′]bipyrrolidinyl-1′-yl)-2-(5-trifluoromethyl-pyridin-2-yl)-1,2,3,4-tetrahydro-isoquinoline]",–
50 nM,15 nM,−20.9%,"Cc1cc(C(F)(F)F)cc(N2CCc3cc(N4CC[C@H](N5CCC[C@@H]5C)C4)ccc3C2)n1 [Example 11, 6-((2S,3′S)-2-Methyl-[1,3′]bipyrrolidinyl-1′-yl)-2-(6-methyl-4-trifluoromethyl-pyridin-2-yl)-1,2,3,4-tetrahydro-isoquinoline]",–
6.1 nM,1.3 nM,−23.3%,"C[C@H]1CCCN1[C@H]1CCN(c2ccc3c(c2)CCN(c2ccc(F)cn2)C3)C1 [Example 12, 2-(5-Fluoro-pyridin-2-yl)-6-((2S,3′S)-2-methyl-[1,3′]bipyrrolidinyl-1′-yl)-1,2,3,4-tetrahydro-isoquinoline]",–
310 nM,35 nM,−18.3%,"C[C@H]1CCCN1[C@H]1CCN(c2ccc3c(c2)CCN(c2ncc(C(F)(F)F)cc2Cl)C3)C1 [Example 14, 2-(3-Chloro-5-trifluoromethyl-pyridin-2-yl)-6-((2S,3′S)-2-methyl-[1,3′]bipyrrolidinyl-1′-yl)-1,2,3,4-tetrahydro-isoquinoline]",–
27 nM,4.6 nM,−21.9%,"C[C@H]1CCCN1[C@H]1CCN(c2ccc3c(c2)CCN(c2ccc(Cl)cn2)C3)C1 [Example 16, 2-(5-Chloro-pyridin-2-yl)-6-((2S,3′S)-2-methyl-[1,3′]bipyrrolidinyl-1′-yl)-1,2,3,4-tetrahydro-isoquinoline]",–
0.93 nM,25 nM,−8.9%,"C[C@H]1CCCN1[C@H]1CCN(c2ccc3c(c2)CCN(c2ccc(C(F)(F)F)cn2)CC3)C1 [Example 19, 7-((2S,3′S)-2-Methyl-[1,3′]bipyrrolidinyl-1′-yl)-3-(5-trifluoromethyl-pyridin-2-yl)-2,3,4,5-tetrahydro-1H-benzo[d]azepine]",–
